Assay results published in patent EP0325571B1, “New amines, their use and preparation” (priority 1988, dated 1989).
Like-named read-outs stand apart in the source and are kept apart here.

Columns and labels:
portal vein [1] = experiment: Noradrenaline antagonism on isolated portal vein; set-up: species or system rat; conditions: 10 min
Description: (§1) b) Antagonistic effect to noradrenaline and calcium on the portal vein
(§2) Preparation of isolated portal vein from rat
(§3) Animals : Albino, male rats, weighing about 200 g.
(§4) The rat is killed by a blow on the neck and decapitated. The abdomen is opened, the vein is dissected free from fat, cut open longitudinally and mounted in an organ bath. Changes in isometric tension is registered by a force displacement transducer, connected to an amplifier and a writing oscillograph.
Noradrenaline - antagonism on portal vein
Doses: Noradrenaline 3 x 10-^7 M
The chosen doses give about 70% of maximal response. The agonist is added to the bath at 10-minutes intervals. When reproducible contractions are obtained a fixed concentration of the test substance is added to the bath. After an incubation period of 10 minutes noradrenaline is added. The next concentration of the test substance is added when the original response of the agonist is obtained.
The antagonistic effect of the substance is calculated as per cent inhibition of the mean response by three preceding doses of the agonist.

isolated urinary bladder = experiment: Anticholinergic activity on isolated urinary bladder (inhibition of carbachol-induced contraction of bladder strips); set-up: species or system guinea-pigs; conditions: 60 minutes incubation with antagonist
Description: a) Anticholinergic activity on isolated urinary bladder
Male guinea-pigs, weighing 250-350 g, were killed by a blow on the head and exsanguinated. The urinary bladders were quickly removed and placed in Na^+-Krebs, in which they were kept throughout the dissection procedure. The bladders were dissected free from adherent fat and connective tissue before they were cut open by an incision on each side from the base towards apex. The mucosa was carefully removed with a pair of scissors. Four strips, approximately 3-5 mm long were prepared by cutting in a parallel direction to the longitudinal muscle fibres, on each half of the bladder.
The bladder strips were immediately mounted vertically in 5 ml organ baths containing Na^+-Krebs solution aerated with carbogene gas to maintain the pH at about 7.4. The temperature, 37°C, was thermostatically controlled by a Lauda MS3 thermostatic circulator. The preparations were suspended between two hooks, one of which was connected to a Grass Instruments FT03 force transducer. The isomeric tension of the preparations was recorded by a Grass polygraph model 79D. The resting tension was applied to approximately 5 mN. The strips were allowed to stabilize for at least 45 minutes. During this period the resting tension was adjusted to 5 mN and the preparations were repeatedly washed.
In the preliminary experiments concentration - effect curves for carbachol (carbamylcholin chloride) were studied, in order to determine a suitable agonist concentration for inhibition studies with antagonist. The carbachol concentration chosen, 3 x 10^-6M, produced a submaximal contractant response (70%). In the inhibition studies, the strips were contracted with carbachol (3 x 10^-6M) every 15 minutes. The strips were washed three times after every agonist addition. This procedure was repeated until a reproducible contractant response was observed. A variation of about 10% for three subsequent contractions was accepted as reproducible.
Initially each antagonist was tested in a concentration of 10-t1M, on. two bladder-strips from different guinea-pigs. When a reproducible response with 3 × 10^-6M carbachol was obtained, the strips were incubated with the antagonist for 15 minutes before the next carbachol was added. If the antagonist produced more than 50% inhibition of the response to carbachol, a complete concentration-inhibition curve was also made. In the complete inhibition curves, the strips were then incubated for 60 minutes with a fixed concentration of the antagonist before the next addition of carbachol. The effect of the antagonists was calculated as per cent inhibition of the mean of the initial agonist-induced contractions. To generate concentration-inhibition curves the antagonists were studied in 6-8 concentrations and for each concentration a fresh preparation was used, i.e. the strips were only exposed to the antagonist once before they were discarded.

portal vein [2] = experiment: Ca-antagonistic effect on isolated portal vein (spontaneous myogenic activity); set-up: species or system rat; conditions: 10 mM K^+-solution added, cumulative doses
Description: as §1, §2, §3, §4
Ca - antagonistic effect on portal vein
10 mM K^+-solution is added to the Krebs buffer to stabilize the spontaneous myogenic activity of the vein. The amplitude of the muscle contractions is measued. The test substance is added to the bath in cumulative doses until total inhibition is obtained.

conscious rat = experiment: Effect on heart rate in conscious rat (ECG); assay type: in vivo; conditions: i.v. injection
Description: e) Effect on heart rate in conscious rat
The animal is slightly anaestetized by ether and an infusion cannula is inserted into a tail vein. While still asleep the rat is placed in a simple device, made of a coarse, somewhat elastic net fixing the rat in a constant position. Electrodes are attached to the extremities and connected to an ECG-pulse pre-amplifier and a Grass polygraph. By recording the ECG, the heart rate can then be determined.
Before any substance is given the animal has regained consciousness and the heart rate has been constant for at least 15 minutes.
The substance is injected, i.v. in the infusion cannula and flushed with physiological saline.
ECG is recorded 0.25, 0.5, 1, 2, 3 and 5 minutes after completed injection and then every 5 minutes until the original heart rate is obtained.

mice = experiment: Acute toxicity in mice, i.v. bolus; assay type: in vivo; conditions: lowest dose where 4 mice of 4 tested died within 5 minutes after i.v. bolus
Procedure: (§5) d) Acute toxicity in mice
(§6) The antagonists to be tested were dissolved in 0.9% NaCI. If they were not soluble in 0.9% NaCI they were dissolved in double distilled water. The solutions were prepared on the day of the experiment.
(§7) White male mice, 25 g, were placed in a mouse holder. The tested compounds were given as i.v. bolus doses in one of the four tail-veins, with a volume of 0.01 ml/g mouse. Each substance concentration was given to a group of four mice. 4-5 different concentrations of the antagonists were made and tested.
(§8) LDso-interval : The LD50-interval was between the highest dose where 4 mice survived and the lowest dose where 4 mice died within 5 minutes after an i.v. bolus dose.

[3] = Acute toxicity in mice, i.v. bolus; assay type: in vivo; conditions: mouse, in vivo, iv; LD50-interval: between highest dose where 4 mice survived and lowest dose where 4 mice died within 5 minutes after i.v. bolus
Procedure: as §5, §6, §7, §8

[4] = rat portal vein, noradrenaline 3 x 10-^7 M, 10 minutes incubation, read-out: Anti-N.A. effect IC50
[5] = Cavia porcellus, 1 h, guinea-pig bladder strips contracted with carbachol 3 x 10^-6M, read-out: Antichol. effect IC50
[6] = rat portal vein, read-out: Anti-Ca effect IC50
[7] = Rattus norvegicus, read-out: Anti-N.A. effect IC50 (M)
[8] = Cavia porcellus, 1 h, read-out: Antichol. effect IC50 (M), guinea-pig bladder strips contracted with carbachol 3 x 10^-6M
[9] = Rattus norvegicus, read-out: Anti-Ca effect IC50 (M), rat portal vein
[10] = read-out: Antichol. effect IC50, guinea-pig bladder strips contracted with carbachol 3 x 10^-6M

CN(CCC(c1ccccc1O)c1ccccc1O)C(C)(C)C [Compound 5]
IC50 (portal vein [1]; [4]): 3.8e-05 M
IC50 (isolated urinary bladder; [5]): 4.9e-09 M
IC50 (portal vein [2]; [6]): 3e-05 M
Effect on heart rate threshold dose (conscious rat): 1 to 3 mg/kg
Lethal dose (mice): 45 mg/kg
LD50 at 5 min [3]: 30 to 45 mg/kg

CC(C)N(CCC(c1ccccc1)c1ccccc1O)C(C)C (single isomer, unassigned; (+)) [Compound 1a, (+)-N,N-Diisopropyl-3-(2-hydroxyphenyl)-3-phenylpropylamine]
IC50 (isolated urinary bladder; [5]): 1.8e-08 M

CC(C)N(CCC(c1ccccc1O)c1ccccc1O)C(C)C [Compound 13]
IC50 (portal vein [1]; [7]): 3e-05 M
IC50 (isolated urinary bladder; [8]): 9e-09 M
IC50 (portal vein [2]; [9]): 1.5e-05 M
Lethal dose (mice): 10 mg/kg
LD50 at 5 min [3]: 5 to 10 mg/kg

COc1ccccc1C(CCN(C)C(C)(C)C)c1ccccc1 (stereo not drawn) [Compound 2]
IC50 (portal vein [1]; [4]): 3.5e-06 M
IC50 (isolated urinary bladder; [5]): 1.5e-07 M
IC50 (portal vein [2]; [6]): 9e-06 M
Lethal dose (mice): 20 mg/kg
LD50 at 5 min [3]: 10 to 20 mg/kg

COc1ccccc1C(CCN1C(C)(C)CCCC1(C)C)c1ccccc1 (stereo not drawn) [Compound 10]
IC50 (portal vein [1]; [4]): 4e-06 M
IC50 (isolated urinary bladder; [5]): 6.2e-08 M
IC50 (portal vein [2]; [6]): 7e-06 M

CC(C)N(CCC(c1ccccc1)c1cc(O)ccc1O)C(C)C (stereo not drawn) [Compound 7]
IC50 (portal vein [1]; [4]): 5e-05 M
IC50 (isolated urinary bladder; [5]): 1.9e-08 M
IC50 (portal vein [2]; [6]): 6.5e-05 M
Lethal dose (mice): 50 mg/kg
LD50 at 5 min [3]: 30 to 50 mg/kg

CN(CCC(c1ccccc1)c1cc(O)ccc1O)C(C)(C)C (stereo not drawn) [Compound 8]
IC50 (portal vein [1]; [4]): 5e-05 M
IC50 (isolated urinary bladder; [5]): 3.1e-08 M
IC50 (portal vein [2]; [6]): > 5e-05 M
Lethal dose (mice): >6 mg/kg
LD50 at 5 min [3]: > 6 mg/kg

Cc1ccc(O)c(C(CCN(C(C)C)C(C)C)c2ccccc2)c1 (single isomer, unassigned) [Compound 4b, (-)-N,N-Diisopropyl-3-(2-hydroxy-5-methylphenyl)-3-phenylpropylamine hydrogen D(-)-tartrate]
IC50 (isolated urinary bladder; [10]): 1.3e-06 M
IC50 (portal vein [2]; read-out: Anti-Ca effect IC50, rat portal vein): 6e-06 M

COc1ccccc1C(CCN(C(C)C)C(C)C)c1ccccc1 (stereo not drawn) [Compound 3]
IC50 (portal vein [1]; [7]): 3.6e-06 M
IC50 (isolated urinary bladder; [8]): 2.4e-07 M
IC50 (portal vein [2]; [9]): > 0.0001 M
Lethal dose (mice): 10 mg/kg
LD50 at 5 min [3]: 3 to 10 mg/kg

Cc1ccc(O)c(C(CCN(C(C)C)C(C)C)c2ccccc2)c1 (stereo not drawn) [Compound 4, N,N-Diisopropyl-3-(2-hydroxy-5-methylphenyl)-3-phenylpropylamine]
IC50 (portal vein [1]; [7]): 5.5e-06 M
IC50 (isolated urinary bladder; [10]): 1.5e-08 M
IC50 (portal vein [2]; [9]): 6e-06 M
LD50 at 5 min [3]: 30 to 40 mg/kg

CC(C)N(CCC(c1ccccc1)c1ccccc1O)C(C)C (racemic) [Compound 1, N,N-Diisopropyl-3-(2-hydroxyphenyl)-3-phenylpropylamine]
IC50 (portal vein [1]; [4]): 1e-05 M
IC50 (isolated urinary bladder; [5]): 1.8e-08 M
IC50 (portal vein [2]; [6]): 1.5e-05 M
Effect on heart rate threshold dose (conscious rat): 1 to 3 mg/kg
Lethal dose (mice): 20 mg/kg
LD50 at 5 min [3]: 10 to 20 mg/kg

Cc1ccc(O)c(C(CCN(C(C)C)C(C)C)c2ccccc2)c1.O=C(O)C(O)C(O)C(=O)O (single isomer, unassigned; (+)) [Compound 4a, (+)-N,N-Diisopropyl-3-(2-hydroxy-5-methylphenyl)-3-phenylpropylamine hydrogen tartrate]
IC50 (isolated urinary bladder; read-out: Antichol. effect IC50, guinea-pig bladder strips contracted with carbachol 3 x 10^-6M, tartrate): 1.3e-08 M
IC50 (portal vein [2]; read-out: Anti-Ca effect IC50, rat portal vein, tartrate): 6.5e-06 M
LD50 at 5 min [3]: 10 to 20 mg/kg

CN(CCC(c1ccccc1)c1ccccc1O)C(C)(C)C (stereo not drawn) [Compound 9]
IC50 (portal vein [1]; [4]): 5e-05 M
IC50 (isolated urinary bladder; [5]): 1.6e-08 M
IC50 (portal vein [2]; [6]): 2.5e-05 M
Lethal dose (mice): 20 mg/kg

CC(C)N(CCC(c1ccccc1)c1ccccc1O)C(C)C (single isomer, unassigned; (-)) [Compound 1b, (-)-N,N-diisopropyl-3-(2-hydroxyphenyl)-3-phenylpropylamine]
IC50 (isolated urinary bladder; guinea-pig bladder strips contracted with carbachol 3 x 10^-6M, read-out: Antichol. effect IC50): 1.4e-08 M

COc1ccccc1C(CCN(C)C)c1ccccc1 (stereo not drawn) [GB-A-1.169.944, N,N-dimethyl-3-(2-methoxyphenyl)-3-phenylpropylamine, reference compound]
IC50 (portal vein [1]; [4]): 4.4e-06 M
IC50 (isolated urinary bladder; [5]): 1.2e-06 M
IC50 (portal vein [2]; [6]): 2.1e-05 M
Lethal dose (mice): 15 mg/kg
LD50 at 5 min [3]: 10 to 15 mg/kg

CC(CC(c1ccccc1)c1ccccc1)NC(C)(C)C (stereo not drawn) [Terodiline, terodiline, reference compound]
IC50 (portal vein [1]; [4]): 2.4e-06 M
IC50 (isolated urinary bladder; [5]): 5.2e-07 M
IC50 (portal vein [2]; [6]): 1e-05 M
Effect on heart rate threshold dose (conscious rat): 1 to 3 mg/kg
Lethal dose (mice): 20 mg/kg
LD50 at 5 min [3]: 15 to 20 mg/kg
